The text below walks through data of article PMC4406737, “Meroterpenoid Chrodrimanins Are Selective and Potent Blockers of Insect GABA-Gated Chloride Channels” (PLoS ONE, 2015).

Test [1] has as its target T1, B. mori GABAR RDL (wild-type isoform, exon 3b and exon 6d) (Bombyx mori, UniProt U3TMA1).
T1 construct: full cDNA in pcDNA3.1, cRNA expressed in Xenopus laevis oocytes; RDL injected alone (homomer)
T1 sequence (U3TMA1 29-482): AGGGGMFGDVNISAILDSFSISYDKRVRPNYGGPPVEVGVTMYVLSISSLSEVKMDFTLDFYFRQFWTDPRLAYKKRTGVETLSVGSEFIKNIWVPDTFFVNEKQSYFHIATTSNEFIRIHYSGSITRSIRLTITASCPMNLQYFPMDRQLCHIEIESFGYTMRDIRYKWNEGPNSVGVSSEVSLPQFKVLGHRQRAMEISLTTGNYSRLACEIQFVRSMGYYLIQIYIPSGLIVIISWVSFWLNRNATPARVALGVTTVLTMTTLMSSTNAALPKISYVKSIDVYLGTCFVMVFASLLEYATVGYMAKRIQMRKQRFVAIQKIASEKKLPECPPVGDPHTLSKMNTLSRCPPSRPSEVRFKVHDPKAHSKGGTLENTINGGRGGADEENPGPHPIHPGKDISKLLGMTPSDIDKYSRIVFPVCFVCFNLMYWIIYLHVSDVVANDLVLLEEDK
The experiment in a line: two-electrode voltage clamp, Xenopus oocytes, agonist concentration-response. The class given is cell-based. For orientation: In two-electrode clamp one electrode senses voltage and the other passes current.

The target in test [2] is T1, B. mori GABAR RDL (wild-type isoform, exon 3b and exon 6d). Nature of the test: two-electrode voltage clamp, Xenopus oocytes, block of GABA peak current. The class given is cell-based.

Each structure is given as a SMILES string. pEC50, pIC50: −log10 of the molar value.

By pEC50 is commonly meant the negative decadic logarithm of the EC50, by convention in mol/L. Usually pIC50 stands for the IC50 on a negative log10 scale, so that one unit is a factor of ten. A lower pIC50 goes with a large IC50.

As for `NCCCC(=O)O` [GABA], in test [1], the pEC50 was 4.39.
Consider `N#Cc1nn(-c2c(Cl)cc(C(F)(F)F)cc2Cl)c(N)c1[S+]([O-])C(F)(F)F` (centres unmarked) [fipronil], for which the negative-log IC50 (pIC50) in test [2] was 7.40.
